Assay results reported in patent US11236084B2, “Substituted azaindoline derivatives as NIK inhibitors” (Janssen Pharmaceutica NV, priority 2017, dated 2022).
Where two headings read alike, the source gives them in different places.

Biological target: recombinant human NF-kappaB-inducing kinase (NIK/MAP3K14) (Homo sapiens, UniProt Q99558)
Test: Biological Assay B: inhibition of auto-phosphorylation of recombinant human NIK/MAP3K14 (AlphaScreen), performed at 2 locations
Format: biochemical
Conditions: averaged values
Summary of the method: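 Run at two separate sites: 1 h, 25° C. reactions containing 0.2 nM GST-NIK, 25 microM ATP and compound (1% DMSO) in Tris pH 7.5/MgCl2 buffer. Phosphorylation detected via anti-phospho-IKK Ser176/180 antibody with AlphaScreen beads; IC50 fitted to % inhibition.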

[1] = location 1, AlphaScreen auto-phosphorylation, read-out: Assay B location 1 IC50
[2] = location 2, AlphaScreen auto-phosphorylation, read-out: Assay B location 2 IC50

Chain of recombinant human NF-kappaB-inducing kinase (NIK/MAP3K14) (Q99558 whole entry): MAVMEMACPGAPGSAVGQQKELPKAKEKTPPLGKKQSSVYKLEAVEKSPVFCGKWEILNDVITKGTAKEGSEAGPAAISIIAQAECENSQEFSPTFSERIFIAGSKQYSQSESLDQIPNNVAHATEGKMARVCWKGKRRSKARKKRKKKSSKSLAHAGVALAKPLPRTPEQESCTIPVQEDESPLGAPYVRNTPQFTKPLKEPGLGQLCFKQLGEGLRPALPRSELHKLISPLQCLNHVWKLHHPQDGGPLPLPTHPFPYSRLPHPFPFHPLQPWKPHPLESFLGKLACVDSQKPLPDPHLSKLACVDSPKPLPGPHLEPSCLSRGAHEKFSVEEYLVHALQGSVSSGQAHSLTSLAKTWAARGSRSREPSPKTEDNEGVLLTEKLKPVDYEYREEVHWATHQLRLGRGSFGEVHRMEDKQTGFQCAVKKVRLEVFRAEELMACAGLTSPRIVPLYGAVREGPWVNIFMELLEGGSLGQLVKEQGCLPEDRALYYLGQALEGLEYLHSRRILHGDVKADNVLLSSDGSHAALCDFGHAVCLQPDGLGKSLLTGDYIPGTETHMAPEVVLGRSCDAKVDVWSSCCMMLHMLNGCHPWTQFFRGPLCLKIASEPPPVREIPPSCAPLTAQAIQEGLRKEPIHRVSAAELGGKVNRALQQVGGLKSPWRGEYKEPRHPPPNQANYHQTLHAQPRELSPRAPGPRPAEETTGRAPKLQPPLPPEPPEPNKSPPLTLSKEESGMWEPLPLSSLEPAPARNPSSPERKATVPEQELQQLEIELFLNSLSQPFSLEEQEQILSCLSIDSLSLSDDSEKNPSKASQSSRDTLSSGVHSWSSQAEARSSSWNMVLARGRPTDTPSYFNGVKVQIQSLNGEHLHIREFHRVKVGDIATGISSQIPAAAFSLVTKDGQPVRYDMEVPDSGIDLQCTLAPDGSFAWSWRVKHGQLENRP

Compound | IC50 [1] | IC50 [2] | IC50 (location 2, NIK auto-phosphorylation, AlphaScreen, read-out: Assay B location 2 IC50) | IC50 (location 1, NIK auto-phosphorylation, AlphaScreen, read-out: Assay B location 1 IC50)
CC1(CO)CNc2ncc(-c3ccnc(Nc4cc(Cl)c(N5CCOCC5)cc4Cl)n3)cc21 (single isomer, unassigned) [Compound 266] | 5 nM | 1.9 nM |  | 
COc1cc(-n2cccn2)ccc1Nc1nccc(-c2cnc3c(c2)C(C)(CO)CN3)n1 (centres unmarked) [Compound 191] |  | ~27 nM |  | 
CCN1CCN(c2cc(OC)c(Nc3nccc(-c4cnc5c(c4)C(C)(CO)CN5)n3)cc2Cl)CC1 (single isomer, unassigned) [Compound 293] | 1.5 nM | 0.5 nM |  | 
COc1c(Nc2nccc(-c3cnc4c(c3)C(C)(CO)CN4)n2)cc(Cl)cc1N1CCOCC1 (centres unmarked) [Compound 307] | 12.3 nM | 3.1 nM |  | 
COCC(C)(C)CNc1cc(OC)c(Nc2nccc(-c3cnc4c(c3)C(C)(CO)CN4)n2)cc1F (centres unmarked) [Compound 323] | 22.9 nM | 7.2 nM |  | 
COc1cc(N2CCOCC2)c(Cl)cc1Nc1nccc(-c2cnc3c(c2)C(C)(CO)CN3)n1 (centres unmarked) [Compound 6] | 4.7 nM | 4 nM |  | 
COc1cc(CO)c(Cl)cc1Nc1nccc(-c2cnc3c(c2)C(C)(C)CN3)n1 [Compound 339] |  |  | 5.6 nM | 
COc1ccc(Cl)cc1Nc1nccc(-c2cnc3c(c2)C(C)(CO)CN3)n1 (centres unmarked) [Compound 183] |  | 1.4 nM |  | 
COc1cc(N2CCC(F)(F)CC2)ccc1Nc1nccc(-c2cnc3c(c2)C(C)(CO)CN3)n1 (centres unmarked) [Compound 217] |  | 27.5 nM |  | 
COc1cc(N2CC3(CCOCC3)C2)c(F)cc1Nc1nccc(-c2cnc3c(c2)C(C)(CO)CN3)n1 (single isomer, unassigned) [Compound 7S] | 7.8 nM | 1.6 nM |  | 
COCCOc1cc(N2CCOCC2)c(C#N)cc1Nc1nccc(-c2cnc3c(c2)C(C)(CO)CN3)n1 (centres unmarked) [Compound 369] | 123 nM | 64.6 nM |  | 
CCC1(CC#N)CNc2ncc(-c3ccnc(Nc4ccc(C(=O)NC5CCOCC5)cc4OC)n3)cc21 (centres unmarked) [Compound 154] |  | 19.1 nM |  | 
COc1ccc(C#N)cc1Nc1nccc(-c2cnc3c(c2)C(C)(CO)CN3)n1 (single isomer, unassigned) [Compound 248] |  | 1.3 nM |  | 
COc1cc(C2CCN(C)CC2)c(Cl)cc1Nc1nccc(-c2cnc3c(c2)C(C)(CO)CN3)n1 (centres unmarked) [Compound 317] | 1.6 nM | 1.7 nM |  | 
COc1cc(N2CC3(CCOCC3)C2)c(F)cc1Nc1nccc(-c2cnc3c(c2)C(C)(CO)CN3)n1 (single isomer, unassigned) [Compound 7R] | 70.8 nM | 19.1 nM |  | 
COc1cc(N2CC(C)(O)C2)c(Cl)cc1Nc1nccc(-c2cnc3c(c2)C(C)(CO)CN3)n1 (centres unmarked) [Compound 313] | 6.9 nM | 4.9 nM |  | 
COc1cc(N2CCN(C)CC2)c(C#N)cc1Nc1nccc(-c2cnc3c(c2)C(C)(CO)CN3)n1 (centres unmarked) [Compound 280] | 6.9 nM | 2.5 nM |  | 
COc1cc(N2CC3(CCOCC3)C2)c(F)cc1Nc1nccc(-c2cnc3c(c2)C(C)(CO)CN3)n1 (centres unmarked) [Compound 7] | 15.5 nM | 2.6 nM |  | 
CCc1ccccc1Nc1nccc(-c2cnc3c(c2)C(C)(CO)CN3)n1 (centres unmarked) [Compound 167] |  | 19.1 nM |  | 
CCN1CCN(C(=O)c2cc(OC)c(Nc3nccc(-c4cnc5c(c4)C(C)(CO)CN5)n3)cc2Cl)CC1 (centres unmarked) [Compound 328] |  | 1.5 nM |  | 
COc1cc(C2COCCN2C)ccc1Nc1nccc(-c2cnc3c(c2)C(C)(CO)CN3)n1 (centres unmarked) [Compound 200] |  | 132 nM |  | 
COc1cc(N2CC(OC)C2)c(F)cc1Nc1nccc(-c2cnc3c(c2)C(C)(CO)CN3)n1 (single isomer, unassigned) [Compound 298] | 8.1 nM | 2.3 nM |  | 

Compound | IC50 [1] | IC50 [2] | IC50 (location 2, NIK auto-phosphorylation, AlphaScreen, read-out: Assay B location 2 IC50) | IC50 (location 1, NIK auto-phosphorylation, AlphaScreen, read-out: Assay B location 1 IC50)
COc1cc(N2CCC(C)(O)CC2)c(Cl)cc1Nc1nccc(-c2cnc3c(c2)C(C)(CO)CN3)n1 (centres unmarked) [Compound 333] |  | 2.2 nM |  | 
CN(C)CCOc1cc(N2CCOCC2)c(F)cc1Nc1nccc(-c2cnc3c(c2)C(C)(CO)CN3)n1 (single isomer, unassigned) [Compound 286] | 7240 nM | 3390 nM |  | 
COc1cc(CO)c(Cl)cc1Nc1nccc(-c2cnc3c(c2)C(C)(CO)CN3)n1 (centres unmarked) [Compound 332] |  | 1.1 nM |  | 
COc1cc(N2CC(OC)C2)c(F)cc1Nc1nccc(-c2cnc3c(c2)C(C)(CO)CN3)n1 (centres unmarked) [Compound 270] | 21.4 nM | 5.8 nM |  | 
COc1cc(-c2ccn(C)n2)ccc1Nc1nccc(-c2cnc3c(c2)C(C)(CO)CN3)n1 (centres unmarked) [Compound 192] |  | 26.9 nM |  | 
Cc1cc(N2CC3(CCOCC3)C2)c(F)cc1Nc1nccc(-c2cnc3c(c2)C(C)(CO)CN3)n1 (centres unmarked) [Compound 281] | 15.9 nM | 3 nM |  | 
COCCN1CCC(c2cc(OC)c(Nc3nccc(-c4cnc5c(c4)C(C)(CO)CN5)n3)cc2Cl)CC1 (centres unmarked) [Compound 319] | 4.2 nM | 1.2 nM |  | 
COc1cc(N2CC3(CCOCC3)C2)c(Cl)cc1Nc1ncc(Cl)c(-c2cnc3c(c2)C(C)(CO)CN3)n1 (single isomer, unassigned) [Compound 348] |  |  |  | 14.8 nM
COc1cc(N2CC3(CCOCC3)C2)c(Cl)cc1Nc1nccc(-c2cnc3c(c2)C(C)(CO)CN3)n1 (single isomer, unassigned) [Compound 3R] | 18.3 nM | 5.7 nM |  | 
COc1cc(Cn2cccn2)ccc1Nc1nccc(-c2cnc3c(c2)C(C)(CO)CN3)n1 (centres unmarked) [Compound 189] |  | 6.9 nM |  | 
COc1cc(CCN2CCOCC2)ccc1Nc1nccc(-c2cnc3c(c2)C(C)(CO)CN3)n1 (centres unmarked) [Compound 194] |  | 21.9 nM |  | 
CC1(CO)CNc2ncc(-c3ccnc(Nc4cc(C#N)c(N5CCOCC5)cc4Cl)n3)cc21 (single isomer, unassigned) [Compound 259] | 3.6 nM | 3.8 nM |  | 
COc1cc(N2CCOCC2)ccc1Nc1nccc(-c2cnc3c(c2)C(C)(CO)CN3)n1 (centres unmarked) [Compound 171] |  | 12.3 nM |  | 
COc1ccc(C)cc1Nc1nccc(-c2cnc3c(c2)C(C)(CO)CN3)n1 (centres unmarked) [Compound 184] |  | 3.4 nM |  | 
COc1cc(N2CC(OC)C2)c(F)cc1Nc1nccc(-c2cnc3c(c2)C(C)(CO)CN3)n1 (single isomer, unassigned) [Compound 288] | 112 nM | 57.5 nM |  | 
COc1ccc(C#N)cc1Nc1nccc(-c2cnc3c(c2)C(C)(CO)CN3)n1 (centres unmarked) [Compound 190] |  | 2.2 nM |  | 
COc1cc(N2CCOCC2)c(C#N)cc1Nc1nccc(-c2cnc3c(c2)C(C)(CO)CN3)n1 (single isomer, unassigned) [Compound 4R] | 55 nM | 36.3 nM |  | 
COCCN(C)c1cc(OC)c(Nc2nccc(-c3cnc4c(c3)C(C)(CO)CN4)n2)cc1Cl (single isomer, unassigned) [Compound 5S] |  | 1.6 nM |  | 
COc1ccc(C)c(Nc2nccc(-c3cnc4c(c3)C(C)(CO)CN4)n2)c1 (centres unmarked) [Compound 220] |  | 2.5 nM |  | 
COc1cc(-c2cncn2C)ccc1Nc1nccc(-c2cnc3c(c2)C(C)(CO)CN3)n1 (centres unmarked) [Compound 170] | 45.7 nM | 27.6 nM |  | 
Cc1cccc(Nc2nccc(-c3cnc4c(c3)C(C)(CO)CN4)n2)c1C (centres unmarked) [Compound 212] |  | 22.4 nM |  | 
